Assay results: patent publication US20220281848A1, “PYRAZOLE-SUBSTITUTED PYRROLIDINONES AS HERBICIDES” (FMC Corporation, priority 2019, published 2022)

Experiments:
Format in all cases: in vivo
[1] = test system: barnyardgrass (Echinochloa crus-galli, ECHCG); assay: Test A pre-emergence, barnyardgrass; details: after 13 d
Procedure, shortened: (§1)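 Each compound is applied pre-emergence at 15.625, 62.5 or 250 g/ha, one day after seeds are sown in standard soil. Plants are then grown in a glasshouse at 24/16° C. with 14 h light and 65% humidity, and injury is scored 0–100 at 13 d.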

[2] = test system: corn (Zea mays, ZEAMX); assay: Test A pre-emergence, corn; details: after 13 d
Procedure, shortened: as §1

[3] = test system: wheat; assay: Test D post-emergence, wheat seed treated with a herbicide safener; details: "Cereals" Postemergent
Procedure: (§2) A formulation containing 50 g/L of the test chemical was prepared by dissolving the active ingredient in a mixture of organic solvents and emulsifier, details of which are provided in the table. This formulation was then mixed with a small, variable amount of acetone to aid dissolution, before addition of a 0.2% v/v aqueous solution of an adjuvant, as the aqueous diluent, to form an aqueous spray solution which contains a predetermined concentration of the active ingredient.
(§3) This aqueous spray solution was then sprayed onto plants including maize and wheat that had been seed treated with a herbicide safener, after one day's cultivation (for pre-emergence) or after about 12 days' cultivation (for post-emergence). The plants were grown from seeds sown in standard soil, placed in a glasshouse under controlled conditions (at 24/18° C. or 20/16° C., day/night; 16 h light; 65% humidity). After spray application the plants were then grown in a glasshouse under the same conditions and watered twice daily. After 15 d for post-emergence and 20 DAA for pre-emergence the test was evaluated (100=total damage to plant; 0=no damage to plant).

[4] = test system: maize; assay: Test D post-emergence, maize seed treated with a herbicide safener
Procedure: as §2, §3

[5] = test system: maize; assay: Test D pre-emergence, maize seed treated with a herbicide safener; details: ZEAMX, preemergent, 20 DAA
Procedure: as §2, §3

[6] = Rates 130, evaluated after 15 d
[7] = Rates 250, evaluated after 15 d
[8] = Rates 500, evaluated after 15 d

## COc1c(F)cccc1NC(=O)C1C(=O)N(C)CC1c1cc(C(F)(F)F)n(C)n1 (racemic) [Compound 18]
[1]; Pre-Emergence at 15.625 g/ha
  damage to plant (100=total damage; 0=no damage) ECHCG: 90
[1]; Pre-Emergence at 62.5 g/ha
  damage to plant (100=total damage; 0=no damage) ECHCG: 90
[1]; Pre-Emergence at 250 g/ha
  damage to plant (100=total damage; 0=no damage) ECHCG: 90
[2]; Pre-Emergence at 15.625 g/ha
  damage to plant (100=total damage; 0=no damage) ZEAMX: 30
[2]; Pre-Emergence at 62.5 g/ha
  damage to plant (100=total damage; 0=no damage) ZEAMX: 60
[2]; Pre-Emergence at 250 g/ha
  damage to plant (100=total damage; 0=no damage) ZEAMX: 80
[3]; [6]
  TRZAW damage rating (100=total damage to plant; 0=no damage to plant): 0
[3]; [7]
  TRZAW damage rating (100=total damage to plant; 0=no damage to plant): 10
[3]; [8]
  TRZAW damage rating (100=total damage to plant; 0=no damage to plant): 40
[4]; rate 130, evaluated after 15 d
  damage to plant (100=total damage to plant; 0=no damage to plant), ZEAMX: 0
[4]; rate 250, evaluated after 15 d
  damage to plant (100=total damage to plant; 0=no damage to plant), ZEAMX: 0
[4]; rate 500, evaluated after 15 d
  damage to plant (100=total damage to plant; 0=no damage to plant), ZEAMX: 10
[5]; rate 15
  damage to plant (100=total damage to plant; 0=no damage to plant), ZEAMX: 0
[5]; rate 30
  damage to plant (100=total damage to plant; 0=no damage to plant), ZEAMX: 0
[5]; rate 60
  damage to plant (100=total damage to plant; 0=no damage to plant), ZEAMX: 0
[5]; rate 130
  damage to plant (100=total damage to plant; 0=no damage to plant), ZEAMX: 0
[5]; rate 250
  damage to plant (100=total damage to plant; 0=no damage to plant), ZEAMX: 0
[5]; rate 500
  damage to plant (100=total damage to plant; 0=no damage to plant), ZEAMX: 0

## CN1CC(c2cc(C(F)(F)F)n(C)n2)C(C(=O)Nc2ccc(F)nc2F)C1=O (racemic) [Compound 22]
[1]; Pre-Emergence at 15.625 g/ha
  damage to plant (100=total damage; 0=no damage) ECHCG: 70
[1]; Pre-Emergence at 62.5 g/ha
  damage to plant (100=total damage; 0=no damage) ECHCG: 90
[1]; Pre-Emergence at 250 g/ha
  damage to plant (100=total damage; 0=no damage) ECHCG: 90
[2]; Pre-Emergence at 15.625 g/ha
  damage to plant (100=total damage; 0=no damage) ZEAMX: 0
[2]; Pre-Emergence at 62.5 g/ha
  damage to plant (100=total damage; 0=no damage) ZEAMX: 20
[2]; Pre-Emergence at 250 g/ha
  damage to plant (100=total damage; 0=no damage) ZEAMX: 40
[3]; [6]
  TRZAW damage rating (100=total damage to plant; 0=no damage to plant): 0
[3]; [7]
  TRZAW damage rating (100=total damage to plant; 0=no damage to plant): 0
[3]; [8]
  TRZAW damage rating (100=total damage to plant; 0=no damage to plant): 10
[4]; rate 130, evaluated after 15 d
  damage to plant (100=total damage to plant; 0=no damage to plant), ZEAMX: 0
[4]; rate 250, evaluated after 15 d
  damage to plant (100=total damage to plant; 0=no damage to plant), ZEAMX: 0
[4]; rate 500, evaluated after 15 d
  damage to plant (100=total damage to plant; 0=no damage to plant), ZEAMX: 20
[5]; rate 15
  damage to plant (100=total damage to plant; 0=no damage to plant), ZEAMX: 0
[5]; rate 30
  damage to plant (100=total damage to plant; 0=no damage to plant), ZEAMX: 0
[5]; rate 60
  damage to plant (100=total damage to plant; 0=no damage to plant), ZEAMX: 0
[5]; rate 130
  damage to plant (100=total damage to plant; 0=no damage to plant), ZEAMX: 0
[5]; rate 250
  damage to plant (100=total damage to plant; 0=no damage to plant), ZEAMX: 0
[5]; rate 500
  damage to plant (100=total damage to plant; 0=no damage to plant), ZEAMX: 0

## CN1CC(c2cc(C(F)(F)F)n(C)n2)C(C(=O)Nc2ccc(F)c(F)c2F)C1=O (racemic) [Compound 17]
[1]; Pre-Emergence at 15.625 g/ha
  damage to plant (100=total damage; 0=no damage) ECHCG: 90
[1]; Pre-Emergence at 62.5 g/ha
  damage to plant (100=total damage; 0=no damage) ECHCG: 100
[1]; Pre-Emergence at 250 g/ha
  damage to plant (100=total damage; 0=no damage) ECHCG: 100
[2]; Pre-Emergence at 15.625 g/ha
  damage to plant (100=total damage; 0=no damage) ZEAMX: 60
[2]; Pre-Emergence at 62.5 g/ha
  damage to plant (100=total damage; 0=no damage) ZEAMX: 70
[2]; Pre-Emergence at 250 g/ha
  damage to plant (100=total damage; 0=no damage) ZEAMX: 90
[3]; [6]
  TRZAW damage rating (100=total damage to plant; 0=no damage to plant): 0
[3]; [7]
  TRZAW damage rating (100=total damage to plant; 0=no damage to plant): 40
[3]; [8]
  TRZAW damage rating (100=total damage to plant; 0=no damage to plant): 70
[4]; rate 130, evaluated after 15 d
  damage to plant (100=total damage to plant; 0=no damage to plant), ZEAMX: 0
[4]; rate 250, evaluated after 15 d
  damage to plant (100=total damage to plant; 0=no damage to plant), ZEAMX: 0
[4]; rate 500, evaluated after 15 d
  damage to plant (100=total damage to plant; 0=no damage to plant), ZEAMX: 0
[5]; rate 15
  damage to plant (100=total damage to plant; 0=no damage to plant), ZEAMX: 0
[5]; rate 30
  damage to plant (100=total damage to plant; 0=no damage to plant), ZEAMX: 0
[5]; rate 60
  damage to plant (100=total damage to plant; 0=no damage to plant), ZEAMX: 0
[5]; rate 130
  damage to plant (100=total damage to plant; 0=no damage to plant), ZEAMX: 0
[5]; rate 250
  damage to plant (100=total damage to plant; 0=no damage to plant), ZEAMX: 10
[5]; rate 500
  damage to plant (100=total damage to plant; 0=no damage to plant), ZEAMX: 30

## CCn1nc([C@H]2CN(C)C(=O)[C@@H]2C(=O)Nc2cccc(F)c2F)c2cc(F)ccc21 [Compound 8]
[1]; Pre-Emergence at 15.625 g/ha
  damage to plant (100=total damage; 0=no damage) ECHCG: 80
[1]; Pre-Emergence at 62.5 g/ha
  damage to plant (100=total damage; 0=no damage) ECHCG: 90
[1]; Pre-Emergence at 250 g/ha
  damage to plant (100=total damage; 0=no damage) ECHCG: 90
[2]; Pre-Emergence at 15.625 g/ha
  damage to plant (100=total damage; 0=no damage) ZEAMX: 20
[2]; Pre-Emergence at 62.5 g/ha
  damage to plant (100=total damage; 0=no damage) ZEAMX: 40
[2]; Pre-Emergence at 250 g/ha
  damage to plant (100=total damage; 0=no damage) ZEAMX: 70
[4]; rate 130, evaluated after 15 d
  damage to plant (100=total damage to plant; 0=no damage to plant), ZEAMX: 0
[4]; rate 250, evaluated after 15 d
  damage to plant (100=total damage to plant; 0=no damage to plant), ZEAMX: 0
[4]; rate 500, evaluated after 15 d
  damage to plant (100=total damage to plant; 0=no damage to plant), ZEAMX: 0
[5]; rate 15
  damage to plant (100=total damage to plant; 0=no damage to plant), ZEAMX: 0
[5]; rate 30
  damage to plant (100=total damage to plant; 0=no damage to plant), ZEAMX: 0
[5]; rate 60
  damage to plant (100=total damage to plant; 0=no damage to plant), ZEAMX: 0
[5]; rate 130
  damage to plant (100=total damage to plant; 0=no damage to plant), ZEAMX: 0
[5]; rate 250
  damage to plant (100=total damage to plant; 0=no damage to plant), ZEAMX: 0
[5]; rate 500
  damage to plant (100=total damage to plant; 0=no damage to plant), ZEAMX: 10
